For this assay, the target named is T1, PR (Homo sapiens, UniProt P06401).
T1 sequence (P06401 1-933): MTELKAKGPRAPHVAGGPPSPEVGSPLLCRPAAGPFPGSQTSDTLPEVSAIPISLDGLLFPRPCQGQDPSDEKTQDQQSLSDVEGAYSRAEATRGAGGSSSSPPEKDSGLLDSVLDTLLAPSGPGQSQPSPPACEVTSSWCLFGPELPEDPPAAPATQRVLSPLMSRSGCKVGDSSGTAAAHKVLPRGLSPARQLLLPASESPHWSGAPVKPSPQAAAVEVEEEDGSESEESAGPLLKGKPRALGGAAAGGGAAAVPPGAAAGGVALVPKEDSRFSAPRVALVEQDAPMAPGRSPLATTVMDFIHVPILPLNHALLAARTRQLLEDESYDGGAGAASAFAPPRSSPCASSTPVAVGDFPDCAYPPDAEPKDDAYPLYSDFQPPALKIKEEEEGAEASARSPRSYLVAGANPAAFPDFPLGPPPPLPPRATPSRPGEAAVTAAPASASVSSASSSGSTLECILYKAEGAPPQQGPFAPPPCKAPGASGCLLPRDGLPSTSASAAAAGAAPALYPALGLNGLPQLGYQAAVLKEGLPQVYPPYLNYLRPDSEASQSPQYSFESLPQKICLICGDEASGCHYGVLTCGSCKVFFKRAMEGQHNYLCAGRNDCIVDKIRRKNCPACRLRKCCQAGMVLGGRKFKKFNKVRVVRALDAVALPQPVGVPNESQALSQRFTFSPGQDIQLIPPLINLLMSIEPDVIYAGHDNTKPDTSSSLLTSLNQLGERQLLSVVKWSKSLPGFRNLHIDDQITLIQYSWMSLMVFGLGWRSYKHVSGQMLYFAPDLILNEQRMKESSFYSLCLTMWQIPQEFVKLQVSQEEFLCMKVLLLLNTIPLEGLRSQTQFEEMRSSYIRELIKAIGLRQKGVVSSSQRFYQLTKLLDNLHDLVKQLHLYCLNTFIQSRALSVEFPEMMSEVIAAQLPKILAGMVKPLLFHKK
Nature of the assay: PR activation (max fold activation). Format: cell-based. The note with it: Table 4.

On to `CC(=O)[C@H]1CC[C@H]2[C@@H]3CCC4=CC(=O)CC[C@]4(C)[C@H]3CC[C@]12C` [Progesterone, reference compound], for which the “PR max fold activation” value is reported as 255 ± 72.

These data come from patent US7947726B2, “Non-steroidal ligands for the glucocorticoid receptor, and compositions thereof” (The Regents of the University of California, priority 2002, dated 2011).
